In PubChem BioAssay AID248 (DTP/NCI, 2004):
“And” between values parts separate entries of the source, which are not always exact repeats. Equal values may be shown once. Toxic doses and inconclusive results are not listed. Rule as the data show it: active = T/C of 150% or more; inactive = T/C below 125%.

System: L1210 leukemia ip in BDF1 mice, survival T/C
Test: NCI In Vivo Anticancer Drug Screen. Data for tumor model L1210 Leukemia (intraperitoneal) in B6D2F1 (BDF1) mice
Settings: endpoint: mean survival time, higher = longer survival
In short: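 Value reflects the ratio of survival in compound-treated mice to survival in vehicle-treated controls, with both groups carrying the same transplanted tumor.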

[1] = dose: 100.0 mg/kg/injection, schedule: Q04DX003 (ip), vehicle: Klucel (hydroxypropylcellulose) (HPC)
[2] = dose: 200.0 mg/kg/injection, schedule: Q01DX009 (ip), vehicle: Klucel (hydroxypropylcellulose) (HPC)
[3] = dose: 200.0 mg/kg/injection, schedule: Q04DX003 (ip), vehicle: Klucel (hydroxypropylcellulose) (HPC)
[4] = dose: 100.0 mg/kg/injection, schedule: Q01DX001 (ip), vehicle: saline with Tween-80
[5] = dose: 200.0 mg/kg/injection, schedule: Q01DX001 (ip), vehicle: saline with Tween-80
[6] = dose: 400.0 mg/kg/injection, schedule: Q01DX001 (ip), vehicle: saline with Tween-80
[7] = dose: 50.0 mg/kg/injection, schedule: Q01DX009 (ip), vehicle: saline
[8] = dose: 100.0 mg/kg/injection, schedule: Q01DX009 (ip), vehicle: saline
[9] = dose: 200.0 mg/kg/injection, schedule: Q01DX009 (ip), vehicle: saline
[10] = dose: 100.0 mg/kg/injection, schedule: Q04DX002 (ip), vehicle: saline with Tween-80
[11] = dose: 100.0 mg/kg/injection, schedule: Q04DX003 (ip), vehicle: saline with Tween-80
[12] = dose: 200.0 mg/kg/injection, schedule: Q04DX002 (ip), vehicle: saline with Tween-80
[13] = dose: 200.0 mg/kg/injection, schedule: Q04DX003 (ip), vehicle: saline with Tween-80
[14] = dose: 400.0 mg/kg/injection, schedule: Q04DX002 (ip), vehicle: saline with Tween-80
[15] = dose: 100.0 mg/kg/injection, schedule: Q04DX002 (ip), vehicle: Klucel (hydroxypropylcellulose) (HPC)
[16] = dose: 200.0 mg/kg/injection, schedule: Q04DX002 (ip), vehicle: Klucel (hydroxypropylcellulose) (HPC)
[17] = dose: 400.0 mg/kg/injection, schedule: Q04DX002 (ip), vehicle: Klucel (hydroxypropylcellulose) (HPC)
[18] = dose: 12.5 mg/kg/injection, schedule: Q01DX009 (ip), vehicle: saline with Tween-80
[19] = dose: 25.0 mg/kg/injection, schedule: Q01DX009 (ip), vehicle: saline with Tween-80
[20] = dose: 50.0 mg/kg/injection, schedule: Q01DX009 (ip), vehicle: saline with Tween-80
[21] = dose: 100.0 mg/kg/injection, schedule: Q01DX009 (ip), vehicle: saline with Tween-80
[22] = dose: 200.0 mg/kg/injection, schedule: Q01DX009 (ip), vehicle: saline with Tween-80

Measured: T/C

Cn1ncc2c1C1(C)CCC2C1(C)C (configuration not stated)
inactive: dose: 50.0 mg/kg/injection, schedule: Q01DX009 (ip), vehicle: Klucel (hydroxypropylcellulose) (HPC) 89 % of control | [1] 102 % of control | [2] 92 % of control | [3] 107 % of control

CC1(c2ccccc2)OC(=O)c2c1ccc1ccccc21 (configuration not stated)
inactive: [4] 94 % of control | [5] 95 % of control | [6] 90 % of control

Cc1ccc(Br)c(Br)c1
inactive: [7] 97 % of control | [8] 87 % of control | [9] 111 % of control

CNC(=O)NCCOC(=O)NC
inactive: [8] 94 % of control | dose: 100.0 mg/kg/injection, schedule: Q04DX003 (ip), vehicle: saline 96 % of control | [9] 98 % of control | dose: 200.0 mg/kg/injection, schedule: Q04DX003 (ip), vehicle: saline 101 % of control | dose: 400.0 mg/kg/injection, schedule: Q01DX009 (ip), vehicle: saline 107 % of control | dose: 400.0 mg/kg/injection, schedule: Q04DX003 (ip), vehicle: saline 101 % of control

COc1ccc2c3c1OC1C(O)=CCC4[C@H](C2)N(C)CC[C@@]314 (some centres not stated)
inactive: dose: 100.0 mg/kg/injection, schedule: Q01DX001 (ip), vehicle: saline 95 % of control | dose: 200.0 mg/kg/injection, schedule: Q01DX001 (ip), vehicle: saline 106 % of control

CCN(C(=O)c1ccccc1C)C(c1ccccc1)P(=O)(c1ccccc1)c1ccccc1 (configuration not stated)
inactive: [4] 118 % of control | [10] 98 % of control and 100 % of control | [11] 109 % of control and 86 % of control | [5] 100 % of control | [12] 93 % of control and 102 % of control | [13] 94 % of control and 96 % of control | [6] 97 % of control | [14] 93 % of control and 90 % of control | dose: 400.0 mg/kg/injection, schedule: Q04DX003 (ip), vehicle: saline with Tween-80 93 % of control and 112 % of control

CC(Cc1cc(C)nc(NC#N)n1)=Nc1ccccc1
inactive: [15] 100 % of control | [16] 92 % of control | [17] 100 % of control

Cc1c(I)sc(I)c1I
inactive: dose: 100.0 mg/kg/injection, schedule: Q01DX001 (ip), vehicle: carboxymethylcellulose (CMC) 94 % of control | dose: 200.0 mg/kg/injection, schedule: Q01DX001 (ip), vehicle: carboxymethylcellulose (CMC) 94 % of control | dose: 400.0 mg/kg/injection, schedule: Q01DX001 (ip), vehicle: carboxymethylcellulose (CMC) 100 % of control

COc1ccc(N=NNc2ccc(OC)cc2)cc1
inactive: dose: 6.25 mg/kg/injection, schedule: Q01DX009 (ip), vehicle: saline with Tween-80 101 % of control | [18] 102 % of control | dose: 12.5 mg/kg/injection, schedule: Q04DX003 (ip), vehicle: saline with Tween-80 97 % of control | [19] 98 % of control and 90 % of control | dose: 25.0 mg/kg/injection, schedule: Q04DX003 (ip), vehicle: saline with Tween-80 95 % of control | dose: 50.0 mg/kg/injection, schedule: Q04DX003 (ip), vehicle: saline with Tween-80 97 % of control | [11] 98 % of control

BrCC(Br)CBr
inactive: [20] 94 % of control | [21] 91 % of control | [11] 94 % of control | [22] 98 % of control | [13] 102 % of control

O=C(CC(Br)C(=O)c1ccccc1)c1ccccc1 (configuration not stated)
inactive: [21] 97 % of control | [22] 97 % of control | dose: 400.0 mg/kg/injection, schedule: Q01DX009 (ip), vehicle: saline with Tween-80 94 % of control

COc1ccccc1C(=O)NC(=S)Nc1ccc(Cl)c(Cl)c1
inactive: dose: 100.0 mg/kg/injection, schedule: Q01DX009 (ip), vehicle: Klucel (hydroxypropylcellulose) (HPC) 96 % of control and 87 % of control | [15] 95 % of control and 88 % of control | [1] 94 % of control | dose: 200.0 mg/kg/injection, schedule: Q01DX001 (ip), vehicle: Klucel (hydroxypropylcellulose) (HPC) 86 % of control | [2] 96 % of control and 106 % of control | [16] 98 % of control and 91 % of control | [3] 92 % of control | dose: 400.0 mg/kg/injection, schedule: Q01DX001 (ip), vehicle: Klucel (hydroxypropylcellulose) (HPC) 107 % of control | dose: 400.0 mg/kg/injection, schedule: Q01DX009 (ip), vehicle: Klucel (hydroxypropylcellulose) (HPC) 102 % of control | [17] 98 % of control and 91 % of control | dose: 400.0 mg/kg/injection, schedule: Q04DX003 (ip), vehicle: Klucel (hydroxypropylcellulose) (HPC) 102 % of control

Cc1c(-c2ccccc2)cc(O)cc1-c1ccccc1
inactive: dose: 25.0 mg/kg/injection, schedule: Q01DX009 (ip), vehicle: saline 98 % of control | [7] 98 % of control | [8] 105 % of control | [9] 100 % of control

CCOC(=O)COCc1ccccc1
inactive: dose: 25.0 mg/kg/injection, schedule: Q01DX009 (ip), vehicle: saline sonified 98 % of control | dose: 50.0 mg/kg/injection, schedule: Q01DX009 (ip), vehicle: saline sonified 93 % of control | dose: 100.0 mg/kg/injection, schedule: Q01DX009 (ip), vehicle: saline sonified 98 % of control | dose: 100.0 mg/kg/injection, schedule: Q04DX003 (ip), vehicle: saline sonified 97 % of control | dose: 176.0 mg/kg/injection, schedule: Q04DX003 (ip), vehicle: saline sonified 98 % of control | dose: 200.0 mg/kg/injection, schedule: Q04DX003 (ip), vehicle: saline sonified 90 % of control | dose: 264.0 mg/kg/injection, schedule: Q04DX003 (ip), vehicle: saline sonified 91 % of control | dose: 400.0 mg/kg/injection, schedule: Q04DX003 (ip), vehicle: saline sonified 104 % of control

C(Sc1ccccc1)=C(Sc1ccccc1)Sc1ccccc1
inactive: dose: 6.25 mg/kg/injection, schedule: Q01DX009 (ip), vehicle: other 94 % of control | dose: 125.0 mg/kg/injection, schedule: Q01DX009 (ip), vehicle: other 105 % of control | dose: 250.0 mg/kg/injection, schedule: Q01DX009 (ip), vehicle: other 98 % of control

CN(C)N=Nc1ccc(S(C)(=O)=O)cc1
inactive: dose: 25.0 mg/kg/injection, schedule: Q04DX002 (ip), vehicle: saline with Tween-80 105 % of control | dose: 50.0 mg/kg/injection, schedule: Q04DX002 (ip), vehicle: saline with Tween-80 102 % of control | [10] 102 % of control and 106 % of control | [12] 116 % of control | [14] 97 % of control

Cc1ccc(C(=O)CCl)c(C)c1
inactive: [18] 95 % of control | [19] 100 % of control | [20] 103 % of control
